Measured values as given in ChEMBL document CHEMBL1135130, “Substituted tetrahydrofuroyl-1-phenylalanine derivatives as potent and specific VLA-4 antagonists” (Bioorg Med Chem Lett, 2002).

Columns and labels:
Integrin alpha-4/beta-1 [1] = biological target: T1, Integrin alpha-4/beta-1 (Homo sapiens, UniProt P05556+P13612); experiment: Inhibition of alpha4-beta1 (very late) antigen binding with VCAM-1 immunoglobulin; format: protein-complex assay
Integrin alpha-4/beta-7 = biological target: T2, Integrin alpha-4/beta-7 (Homo sapiens, UniProt P13612+P26010); experiment: Inhibition of alpha4-beta7 antigen with MAdCAM immunoglobulin; format: protein-complex assay
T2 sequence (P13612 whole entry): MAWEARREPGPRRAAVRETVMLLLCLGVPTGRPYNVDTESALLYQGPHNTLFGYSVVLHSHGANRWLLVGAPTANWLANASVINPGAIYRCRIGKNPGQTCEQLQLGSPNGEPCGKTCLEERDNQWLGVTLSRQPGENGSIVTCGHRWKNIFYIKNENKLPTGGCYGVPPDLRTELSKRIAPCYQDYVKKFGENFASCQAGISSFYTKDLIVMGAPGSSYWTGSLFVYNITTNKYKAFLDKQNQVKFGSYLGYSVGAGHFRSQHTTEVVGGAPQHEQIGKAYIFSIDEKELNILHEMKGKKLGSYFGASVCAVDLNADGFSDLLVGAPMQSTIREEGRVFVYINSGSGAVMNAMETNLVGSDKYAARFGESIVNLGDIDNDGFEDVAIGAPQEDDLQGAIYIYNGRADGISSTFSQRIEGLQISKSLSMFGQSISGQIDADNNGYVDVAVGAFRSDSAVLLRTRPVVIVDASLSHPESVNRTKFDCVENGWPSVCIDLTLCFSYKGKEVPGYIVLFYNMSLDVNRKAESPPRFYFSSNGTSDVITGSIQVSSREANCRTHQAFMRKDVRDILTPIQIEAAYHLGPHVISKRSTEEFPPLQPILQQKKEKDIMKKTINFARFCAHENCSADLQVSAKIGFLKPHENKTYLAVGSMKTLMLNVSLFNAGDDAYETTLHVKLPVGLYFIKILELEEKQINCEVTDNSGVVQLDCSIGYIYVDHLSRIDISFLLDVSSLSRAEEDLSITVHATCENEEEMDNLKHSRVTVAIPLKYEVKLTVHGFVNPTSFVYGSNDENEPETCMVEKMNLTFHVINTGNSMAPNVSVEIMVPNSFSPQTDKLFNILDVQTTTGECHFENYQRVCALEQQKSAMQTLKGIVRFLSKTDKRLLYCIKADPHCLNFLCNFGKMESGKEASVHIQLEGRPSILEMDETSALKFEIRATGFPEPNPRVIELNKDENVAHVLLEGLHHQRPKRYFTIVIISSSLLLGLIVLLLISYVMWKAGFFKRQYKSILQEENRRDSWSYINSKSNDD
T2 sequence (P26010 whole entry): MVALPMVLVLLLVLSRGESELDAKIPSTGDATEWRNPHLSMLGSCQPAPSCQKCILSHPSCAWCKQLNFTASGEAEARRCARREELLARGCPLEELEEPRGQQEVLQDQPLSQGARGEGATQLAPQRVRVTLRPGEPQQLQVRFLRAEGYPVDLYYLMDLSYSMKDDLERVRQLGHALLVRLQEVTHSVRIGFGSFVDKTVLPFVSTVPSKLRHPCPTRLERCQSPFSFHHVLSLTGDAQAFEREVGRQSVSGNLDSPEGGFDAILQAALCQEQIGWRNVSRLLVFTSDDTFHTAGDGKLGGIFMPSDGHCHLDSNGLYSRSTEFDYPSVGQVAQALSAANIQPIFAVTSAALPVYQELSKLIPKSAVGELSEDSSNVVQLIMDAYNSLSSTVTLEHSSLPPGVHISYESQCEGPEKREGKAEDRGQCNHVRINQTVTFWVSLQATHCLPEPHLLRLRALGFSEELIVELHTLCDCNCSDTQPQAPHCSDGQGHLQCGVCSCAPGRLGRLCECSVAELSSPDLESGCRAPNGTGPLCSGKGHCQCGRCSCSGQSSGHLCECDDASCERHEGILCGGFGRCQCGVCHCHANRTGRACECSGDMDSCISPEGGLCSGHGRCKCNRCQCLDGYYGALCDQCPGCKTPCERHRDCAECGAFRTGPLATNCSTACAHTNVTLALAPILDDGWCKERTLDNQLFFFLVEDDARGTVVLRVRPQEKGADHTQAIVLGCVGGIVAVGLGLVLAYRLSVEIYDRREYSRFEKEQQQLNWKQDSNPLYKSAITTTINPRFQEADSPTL

[2] = biological target: Integrin alpha-4/beta-7 (Homo sapiens) (UniProt P13612+P26010); experiment: Selectivity for alpha4-beta7 to that of alpha4-beta1; format: protein-complex assay
Integrin alpha-4/beta-1 [3] = biological target: T1, Integrin alpha-4/beta-1; experiment: Inhibition of alpha4-beta1 (very late) antigen binding with VCAM-1 immunoglobulin plus 5% human plasma; format: cell-free

T1 sequence (P05556 whole entry, one chain of several): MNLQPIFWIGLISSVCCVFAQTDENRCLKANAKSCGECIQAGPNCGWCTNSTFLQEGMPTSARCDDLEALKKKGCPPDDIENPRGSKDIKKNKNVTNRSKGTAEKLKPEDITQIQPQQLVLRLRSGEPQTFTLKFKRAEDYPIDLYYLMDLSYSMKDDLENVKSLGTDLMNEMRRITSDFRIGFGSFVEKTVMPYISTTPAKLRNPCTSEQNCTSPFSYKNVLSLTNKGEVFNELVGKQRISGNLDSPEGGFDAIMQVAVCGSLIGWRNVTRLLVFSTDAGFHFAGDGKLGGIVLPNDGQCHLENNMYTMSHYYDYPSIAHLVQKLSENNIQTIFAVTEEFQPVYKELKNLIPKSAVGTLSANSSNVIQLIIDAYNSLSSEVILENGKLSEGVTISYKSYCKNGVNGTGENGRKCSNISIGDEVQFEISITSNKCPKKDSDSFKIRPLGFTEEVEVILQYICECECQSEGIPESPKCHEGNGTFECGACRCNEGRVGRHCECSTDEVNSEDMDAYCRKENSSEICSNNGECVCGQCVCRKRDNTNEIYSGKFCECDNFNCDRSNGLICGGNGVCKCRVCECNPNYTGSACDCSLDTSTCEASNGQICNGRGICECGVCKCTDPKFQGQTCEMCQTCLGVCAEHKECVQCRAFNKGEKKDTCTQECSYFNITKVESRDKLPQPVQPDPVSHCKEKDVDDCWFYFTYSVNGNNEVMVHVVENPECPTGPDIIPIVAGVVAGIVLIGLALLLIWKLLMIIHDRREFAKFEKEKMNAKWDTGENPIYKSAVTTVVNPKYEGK

| SMILES | IC50 (Integrin alpha-4/beta-1 [1]) [nM] | IC50 (Integrin alpha-4/beta-7) [nM] | Ratio [2] | IC50 (Integrin alpha-4/beta-1 [3]) [nM] |
| --- | --- | --- | --- | --- |
| COc1cccc(OC)c1-c1ccc(C[C@H](NC(=O)[C@]2(C)OC(C)CC2N)C(=O)O)cc1 (some centres not stated) | 2.6 | 149 | 57 |  |
| COc1ccccc1-c1ccc(C[C@H](NC(=O)[C@@]2(c3cc(C(F)(F)F)cc(C(F)(F)F)c3)CCCO2)C(=O)O)cc1 | 4.62 | 499 | 108 | 1100 |
| COc1cccc(OC)c1-c1ccc(C[C@H](NC(=O)[C@]2(C)OC(C)CC2=O)C(=O)O)cc1 (some centres not stated) | 0.7 | 24.5 | 35 | 1.32 |
| COc1cccc(OC)c1-c1ccc(C[C@H](NC(=O)[C@@]2(CCCO)CCCO2)C(=O)O)cc1 | 2.12 | 35.3 | 17 | 3.36 |
| COc1ccccc1-c1ccc(C[C@H](NC(=O)[C@@]2(c3cccc(C(F)(F)F)c3)CCCO2)C(=O)O)cc1 | 4.65 | 327 | 70 | 290 |
| COc1ccccc1-c1ccc(C[C@H](NC(=O)[C@@]2(c3ccc(C(F)(F)F)cc3)CCCO2)C(=O)O)cc1 | 5.31 | 504 | 95 | 120 |
| COc1cccc(OC)c1-c1ccc(C[C@H](NC(=O)[C@@]2(CCCN(C)C)CCCO2)C(=O)O)cc1 | 9.18 | 67 | 7 |  |
| COc1cccc(OC)c1-c1ccc(C[C@H](NC(=O)[C@@]2(CCCCO)CCCO2)C(=O)O)cc1 | 255 | 245 | 1 | 870 |
| COc1cccc(OC)c1-c1ccc(C[C@H](NC(=O)[C@@]2(C(C)C)CCCO2)C(=O)O)cc1 | 0.7 | 6.1 | 9 | 7.46 |
| COc1cccc(OC)c1-c1ccc(C[C@H](NC(=O)[C@@]2(CC(C)C)CCCO2)C(=O)O)cc1 | 1.15 | 22.3 | 19 | 4.02 |
| COc1ccccc1-c1ccc(C[C@H](NC(=O)[C@@]2(C(=O)N3CCN(C)CC3)CCCO2)C(=O)O)cc1 | 0.59 | 23.2 | 39 | 1 |
| COc1cc(OC)cc([C@]2(C(=O)N[C@@H](Cc3ccc(-c4c(OC)cccc4OC)cc3)C(=O)O)CCCO2)c1 | 1.48 |  |  | 5.77 |
| COc1cccc(OC)c1-c1ccc(C[C@H](NC(=O)[C@@]2(c3nc4ccccc4o3)CCCO2)C(=O)O)cc1 | 0.42 | 377 | 897 | 2.4 |
| COc1ccccc1-c1ccc(C[C@H](NC(=O)[C@@]2(c3ccc(Cl)cc3)CCCO2)C(=O)O)cc1 | 4.09 | 275 | 67 | 46 |
| COc1cccc(OC)c1-c1ccc(C[C@H](NC(=O)[C@@]2(CCCCN(C)C)CCCO2)C(=O)O)cc1 | 16.3 | 226 | 14 | 22.9 |
| COc1ccccc1-c1ccc(C[C@H](NC(=O)[C@@]2(C(=O)N3CCOCC3)CCCO2)C(=O)O)cc1 | 0.54 | 8.49 | 16 | 1 |
| COc1cccc(OC)c1-c1ccc(C[C@H](NC(=O)[C@@]2(C(=O)C(C)C)CCCO2)C(=O)O)cc1 | 0.67 | 11.2 | 22 |  |
| COc1cccc(OC)c1-c1ccc(C[C@H](NC(=O)[C@@]2(c3ccc(Cl)c([N+](=O)[O-])c3)CCCO2)C(=O)O)cc1 | 0.47 | 45.6 | 97 | 2.41 |

| SMILES | IC50 (Integrin alpha-4/beta-1 [1]) [nM] | IC50 (Integrin alpha-4/beta-7) [nM] | Ratio [2] | IC50 (Integrin alpha-4/beta-1 [3]) [nM] |
| --- | --- | --- | --- | --- |
| COc1cccc(OC)c1-c1ccc(C[C@H](NC(=O)[C@@]2(CCO)CCCO2)C(=O)O)cc1 | 1.56 | 16.3 | 10 | 7.59 |
| COc1ccccc1-c1ccc(C[C@H](NC(=O)[C@@]2(c3ccc(C(C)(C)C)cc3)CCCO2)C(=O)O)cc1 | 1.8 | 99.5 | 55 | 29 |
| COc1ccccc1-c1ccc(C[C@H](NC(=O)[C@@]2(c3ccc(Br)cc3)CCCO2)C(=O)O)cc1 | 3.62 | 232 | 64 | 53 |
| COc1ccccc1-c1ccc(C[C@H](NC(=O)[C@@]2(C(=O)N3CCCC3)CCCO2)C(=O)O)cc1 | 1.33 | 22.9 | 17 | 4.42 |
| CCOC(=O)[C@]1(C(=O)N[C@@H](Cc2ccc(-c3ccccc3OC)cc2)C(=O)O)CCCO1 | 4.06 | 51.1 | 13 | 19 |
| COc1ccccc1-c1ccc(C[C@H](NC(=O)[C@@]2(C)CCCO2)C(=O)O)cc1 | 3.9 | 45.3 | 12 | 60.6 |
| COc1ccccc1-c1ccc(C[C@H](NC(=O)[C@@]2(c3ccccc3)CCCO2)C(=O)O)cc1 | 2.2 | 56.4 | 26 |  |
| COCCCC[C@]1(C(=O)N[C@@H](Cc2ccc(-c3c(OC)cccc3OC)cc2)C(=O)O)CCCO1 | 0.62 | 22 | 35 | 1.27 |
| COc1cccc(OC)c1-c1ccc(C[C@H](NC(=O)[C@@]2(CCN(C)C)CCCO2)C(=O)O)cc1 | 15.5 | 80 | 5 | 19.5 |
| COc1ccccc1-c1ccc(C[C@H](NC(=O)[C@@]2(c3ccc(C)c(C)c3)CCCO2)C(=O)O)cc1 | 6.18 | 374 | 60 | 343 |
| COc1cccc(OC)c1-c1ccc(C[C@H](NC(=O)[C@@]2(c3cccc([N+](=O)[O-])c3)CCCO2)C(=O)O)cc1 | 0.23 | 19.6 | 85 | 0.95 |
| COc1ccc(CNC2CC(C)O[C@@]2(C)C(=O)N[C@@H](Cc2ccc(-c3c(OC)cccc3OC)cc2)C(=O)O)cc1 (some centres not stated) | 3.4 | 733 | 225 | 14.9 |
| COc1cccc(OC)c1-c1ccc(C[C@H](NC(=O)[C@@]2(c3cccc(N)c3)CCCO2)C(=O)O)cc1 | 0.92 | 26.6 | 29 | 5.63 |
| COCC[C@]1(C(=O)N[C@@H](Cc2ccc(-c3c(OC)cccc3OC)cc2)C(=O)O)CCCO1 | 0.7 | 16.1 | 40 | 1.99 |
| COc1ccccc1-c1ccc(C[C@H](NC(=O)[C@@]2(c3ccc(F)cc3)CCCO2)C(=O)O)cc1 | 4.3 | 45.7 | 11 | 48 |
| COc1cccc(OC)c1-c1ccc(C[C@H](NC(=O)[C@@]2(c3ccc(Cl)cc3)CCCO2)C(=O)O)cc1 | 0.55 | 52.2 | 95 | 4.75 |
| COc1cccc(OC)c1-c1ccc(C[C@H](NC(=O)[C@@]2(c3ncc(C)s3)CCCO2)C(=O)O)cc1 | 0.31 | 14.5 | 47 |  |
| CCCC[C@]1(C(=O)N[C@@H](Cc2ccc(-c3c(OC)cccc3OC)cc2)C(=O)O)CCCO1 | 0.48 | 13.8 | 29 | 1.46 |
